Measurements as given in patent US10722484B2, “Methods of cancer treatment” (K-Gen, Inc., priority 2016, dated 2020).
Read-outs that look alike come from different tables or passages of the source.

Columns and labels:
Experiment in all cases: Proliferation assay (CellTiter Glo)
[1] = system: HCT116; type: cell-based; settings: 96 hours; for EC50: Homo sapiens, HCT-116
Method: (§1) The dose range for most compounds was 4.6 nM-30 μM. The dose ranges for some compounds were adjusted downward to 0.46 nM-3 μM or 0.08 nM-0.5 μM or 0.03 nM-0.2 μM. […] The results are shown in Tables 3-6 for pancreatic cancer, lung cancer, colon/gastric cancer, and leukemia.

[2] = system: AGS; type: cell-based; settings: 96 hours; for EC50: Homo sapiens
Method: as §1

[3] = system: H727; type: cell-based; settings: 96 hours; for EC50: Homo sapiens, NCI-H727
Method: as §1

[4] = system: Capan-1; type: cell-based; settings: 96 hours; for EC50: Homo sapiens
Method: as §1

[5] = system: Pan2.03; type: cell-based; settings: 96 hours
Method: as §1

[6] = system: LS180; type: cell-based; settings: 96 hours; for EC50: Homo sapiens
Method: as §1

[7] = system: AsPC-1; type: cell-based; settings: 96 hours; for EC50: Homo sapiens, ASPC1
Method: as §1

[8] = system: Pan2.13; type: cell-based; settings: 96 hours
Method: as §1

[9] = system: H358; type: cell-based; settings: HE58, 96 hours; for EC50: Homo sapiens, NCI-H358
Method: as §1

[10] = system: CCRF-CEM; type: cell-based; settings: 96 hours; for EC50: Homo sapiens
Method: as §1

[11] = system: KP-4; type: cell-based; settings: 96 hours; for EC50: Homo sapiens
Method: as §1

[12] = system: A549; type: cell-based; settings: 96 hours; for EC50: Homo sapiens
Method: as §1

[13] = system: SW620; type: cell-based; settings: 96 hours; for EC50: Homo sapiens, SW-620
Method: as §1

[14] = system: H441; type: cell-based; settings: 96 hours; for EC50: Homo sapiens, NCI-H441
Method: as §1

[15] = system: MiaPaCa-2; type: cell-based; settings: Homo sapiens, MIA PaCa-2, 96 hours
[16] = system: THP1; type: cell-based, human; settings: 96 hours; for EC50: Homo sapiens, THP-1
Method: as §1

[17] = system: HL60; type: cell-based, human; settings: 96 hours; for EC50: Homo sapiens, HL-60
Method: as §1

EC50 ([1]; HCT116 (K-RAS: G13D), absolute EC50, read-out: Ab EC50): 2.2 nM | EC50 ([1]; HCT116, relative EC50, read-out: Re EC50): 2.1 nM | EC50 ([2]; AGS (gastric, K-RAS: G12D), absolute EC50, read-out: Ab EC50): 4.7 nM | EC50 ([2]; AGS, relative EC50, read-out: Re EC50): 3.9 nM | EC50 ([3]; H727 (K-RAS: G12V), absolute EC50, read-out: Ab EC50): > 500 nM | EC50 ([3]; H727, relative EC50, read-out: Re EC50): 2.3 nM | EC50 ([7]; AsPC-1 (K-RAS: G12D), absolute EC50, read-out: Ab EC50): 10 nM | EC50 ([7]; AsPC-1, relative EC50, read-out: Re EC50): 3.8 nM | EC50 ([9]; absolute EC50, read-out: Ab EC50): 2.4 nM | EC50 ([9]; relative EC50, read-out: Re EC50): 1.8 nM | EC50 ([10]; CCRF-CEM (K-RAS: G12D), absolute EC50, read-out: Ab EC50): 4 nM | EC50 ([10]; CCRF-CEM, relative EC50, read-out: Re EC50): 3.9 nM | EC50 ([12]; A549 (K-RAS: G12S), absolute EC50, read-out: Ab EC50): 2.6 nM | EC50 ([12]; A549, relative EC50, read-out: Re EC50): 2.3 nM | EC50 ([13]; SW620 (K-RAS: G12V), absolute EC50, read-out: Ab EC50): 12 nM | EC50 ([13]; SW620, relative EC50, read-out: Re EC50): 9.4 nM | EC50 ([14]; H441 (K-RAS: G12V), absolute EC50, read-out: Ab EC50): 35.8 nM | EC50 ([14]; H441, relative EC50, read-out: Re EC50): 3.5 nM | EC50 ([15]; MiaPaCa-2 (K-RAS: G12C), absolute EC50, read-out: Ab EC50): 3.4 nM | EC50 ([15]; MiaPaCa-2, relative EC50, read-out: Re EC50): 3.3 nM | EC50 ([16]; THP1 (N-RAS: G12D), absolute EC50, read-out: Ab EC50): 8.3 nM | EC50 ([16]; THP1, relative EC50, read-out: Re EC50): 7.6 nM | EC50 ([17]; HL60 (N-RAS: Q61L), absolute EC50, read-out: Ab EC50): 5.2 nM | EC50 ([17]; HL60, relative EC50, read-out: Re EC50): 5.2 nM
SMILES: CC(=O)O[C@H]1C(=O)[C@@]2(C)[C@H]([C@H](OC(=O)c3ccccc3)[C@]3(O)C[C@H](OC(=O)[C@H](O)[C@@H](NC(=O)c4ccccc4)c4ccccc4)C(C)=C1C3(C)C)[C@]1(OC(C)=O)CO[C@@H]1C[C@@H]2O [Paclitaxel]
Top Inhibition % ([1]; HCT116, % of top inhibition): 94.8% | Top Inhibition % ([2]; AGS, % of top inhibition): 87.7% | Top Inhibition % ([3]; H727, % of top inhibition): 49.0% | Top Inhibition % ([4]; Capan-1, % of top inhibition): 73.5% | EC50 ([4]; Capan-1 (K-RAS: G12V), absolute EC50, read-out: Ab EC50): 11 nM | EC50 ([4]; Capan-1, relative EC50, read-out: Re EC50): 7.2 nM | EC50 ([5]; Pan2.03 (K-RAS: G12D), absolute EC50, read-out: Ab EC50): 3.3 nM | Top Inhibition % ([5]; Pan2.03, % of top inhibition): 64.7% | EC50 ([5]; Pan2.03, relative EC50, read-out: Re EC50): 1.8 nM | EC50 ([6]; LS180 (K-RAS: G12D), absolute EC50, read-out: Ab EC50): 14 nM | EC50 ([6]; LS180, relative EC50, read-out: Re EC50): 8.8 nM | Top Inhibition % ([6]; LS180, % of top inhibition): 67.1% | Top Inhibition % ([7]; AsPC-1, % of top inhibition): 60.9% | EC50 ([8]; Pan2.13 (K-RAS: Q61H), absolute EC50, read-out: Ab EC50): 65 nM | Top Inhibition % ([8]; Pan2.13, % of top inhibition): 53.2% | EC50 ([8]; Pan2.13, relative EC50, read-out: Re EC50): 2.7 nM | Top Inhibition % ([9]; % of top inhibition): 89.2% | Top Inhibition % ([10]; CCRF-CEM, % of top inhibition): 97.8% | EC50 ([11]; KP-4 (K-RAS: G12C), absolute EC50, read-out: Ab EC50): 1.9 nM | EC50 ([11]; KP-4, relative EC50, read-out: Re EC50): 1.8 nM | Top Inhibition % ([11]; KP-4, % of top inhibition): 96.2% | Top Inhibition % ([12]; A549, % of top inhibition): 86.0% | Top Inhibition % ([13]; SW620, % of top inhibition): 92.1% | Top Inhibition % ([14]; H441, % of top inhibition): 51.9% | Top Inhibition % ([16]; THP1, % of top inhibition): 91.2% | Top Inhibition % ([17]; HL60, % of top inhibition): 98.7%
